Test results as given in ChEMBL document CHEMBL1909046, “DrugMatrix in vitro pharmacology data”.

Assays:
[1] = DRUGMATRIX: Glutamate, NMDA, Phencyclidine radioligand binding (ligand: [3H] TCP); format: cell membranes, Rattus norvegicus, Wistar, Cerebral cortex, Membrane; conditions: Not Active = under 50% inhibition at 10 µM
[2] = target: T1, Polyunsaturated fatty acid lipoxygenase ALOX15 (Oryctolagus cuniculus, UniProt P12530); assay: biochemical; format: tissue-based, Reticulocytes;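 also: inhibition of 15-lipoxygenase enzyme activity measured with linoleic acid as the substrate; in other assays of this panel Not Active means under 50% inhibition at 10 µM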
T1 sequence (P12530 whole entry): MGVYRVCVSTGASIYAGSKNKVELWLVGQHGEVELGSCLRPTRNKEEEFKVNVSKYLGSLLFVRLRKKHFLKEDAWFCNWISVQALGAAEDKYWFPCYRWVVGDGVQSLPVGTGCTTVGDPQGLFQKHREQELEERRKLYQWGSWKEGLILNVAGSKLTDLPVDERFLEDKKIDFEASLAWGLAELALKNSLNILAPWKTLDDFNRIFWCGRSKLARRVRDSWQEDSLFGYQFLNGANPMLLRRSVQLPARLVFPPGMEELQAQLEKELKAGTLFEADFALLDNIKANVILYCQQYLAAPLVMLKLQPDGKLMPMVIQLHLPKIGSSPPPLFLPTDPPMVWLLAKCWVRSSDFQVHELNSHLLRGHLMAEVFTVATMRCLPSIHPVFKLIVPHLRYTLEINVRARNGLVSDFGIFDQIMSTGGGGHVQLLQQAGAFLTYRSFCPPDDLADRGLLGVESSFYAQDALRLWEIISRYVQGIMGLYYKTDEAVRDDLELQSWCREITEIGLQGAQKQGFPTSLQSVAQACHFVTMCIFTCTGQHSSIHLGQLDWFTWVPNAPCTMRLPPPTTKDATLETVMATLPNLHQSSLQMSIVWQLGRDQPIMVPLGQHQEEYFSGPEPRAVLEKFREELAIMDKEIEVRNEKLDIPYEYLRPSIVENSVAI

Cathepsin G = target: T2, Cathepsin G (Homo sapiens, UniProt P08311); format: tissue-based; conditions: neutrophil;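 also: inhibition of Cathepsin G enzyme activity, tested on an AMC-conjugated peptide substrate; in other assays of this panel Not Active means under 50% inhibition at 10 µM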
T2 sequence (P08311 whole entry): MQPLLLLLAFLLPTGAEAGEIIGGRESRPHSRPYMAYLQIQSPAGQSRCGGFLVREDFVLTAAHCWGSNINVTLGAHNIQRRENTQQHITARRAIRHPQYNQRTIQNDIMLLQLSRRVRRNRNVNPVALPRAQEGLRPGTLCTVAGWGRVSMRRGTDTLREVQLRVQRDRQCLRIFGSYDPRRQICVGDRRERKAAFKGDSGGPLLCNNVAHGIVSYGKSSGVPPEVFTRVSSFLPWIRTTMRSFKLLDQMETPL

[3] = target: Vascular endothelial growth factor receptor 1 (Homo sapiens, UniProt P17948); assay: biochemical; format: cell-based, HUVEC; conditions: huvec; also: in other assays of this panel Not Active means under 50% inhibition at 10 µM
Chain of Vascular endothelial growth factor receptor 1 (P17948 whole entry): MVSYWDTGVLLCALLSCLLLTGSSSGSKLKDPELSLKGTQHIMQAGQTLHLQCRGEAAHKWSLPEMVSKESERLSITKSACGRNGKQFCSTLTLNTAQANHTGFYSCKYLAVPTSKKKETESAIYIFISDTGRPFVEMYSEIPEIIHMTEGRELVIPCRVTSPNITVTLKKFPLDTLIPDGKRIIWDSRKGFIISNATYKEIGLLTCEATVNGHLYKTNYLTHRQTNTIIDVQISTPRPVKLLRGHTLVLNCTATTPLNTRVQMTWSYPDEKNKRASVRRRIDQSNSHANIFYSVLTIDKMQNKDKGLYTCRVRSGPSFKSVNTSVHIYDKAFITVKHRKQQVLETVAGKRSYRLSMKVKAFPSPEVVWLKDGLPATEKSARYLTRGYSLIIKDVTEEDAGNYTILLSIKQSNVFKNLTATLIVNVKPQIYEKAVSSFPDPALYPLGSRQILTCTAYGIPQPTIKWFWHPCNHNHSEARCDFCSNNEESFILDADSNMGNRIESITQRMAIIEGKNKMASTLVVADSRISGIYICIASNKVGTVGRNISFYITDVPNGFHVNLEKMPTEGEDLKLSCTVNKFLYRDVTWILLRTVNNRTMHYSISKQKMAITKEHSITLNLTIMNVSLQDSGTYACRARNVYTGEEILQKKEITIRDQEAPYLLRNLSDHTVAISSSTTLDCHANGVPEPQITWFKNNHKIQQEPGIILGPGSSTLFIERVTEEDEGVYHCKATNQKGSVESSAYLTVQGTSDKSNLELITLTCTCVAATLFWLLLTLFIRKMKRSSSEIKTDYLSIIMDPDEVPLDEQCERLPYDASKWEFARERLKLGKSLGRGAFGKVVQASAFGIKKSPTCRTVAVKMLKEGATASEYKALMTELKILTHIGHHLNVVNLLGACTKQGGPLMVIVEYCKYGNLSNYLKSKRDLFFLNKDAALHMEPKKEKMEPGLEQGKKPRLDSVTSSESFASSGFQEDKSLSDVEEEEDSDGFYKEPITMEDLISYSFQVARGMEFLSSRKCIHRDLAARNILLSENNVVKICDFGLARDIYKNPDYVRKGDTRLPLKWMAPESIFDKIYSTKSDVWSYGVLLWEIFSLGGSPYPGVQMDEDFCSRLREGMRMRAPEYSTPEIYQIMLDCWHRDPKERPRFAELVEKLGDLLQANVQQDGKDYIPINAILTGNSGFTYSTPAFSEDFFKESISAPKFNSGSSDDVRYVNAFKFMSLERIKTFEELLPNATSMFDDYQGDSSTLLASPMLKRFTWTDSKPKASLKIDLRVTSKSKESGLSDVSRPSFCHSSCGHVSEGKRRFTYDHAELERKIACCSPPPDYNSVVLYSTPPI

[4] = DRUGMATRIX: Sodium/nucleoside co-transporter radioligand binding (ligand: nitrobenzylthioinosine); format: cell membranes, Cavia porcellus, Dunkin-Hartley, Cerebral cortex, Membrane; conditions: Not Active = under 50% inhibition at 10 µM
[5] = target: Tyrosine-protein kinase Lck (Homo sapiens, UniProt P06239); assay: DRUGMATRIX: Protein Tyrosine Kinase, LCK enzyme inhibition (substrate: Poly(Glu:Tyr)); format: cell-based, Insect cells; conditions: Not Active = under 50% inhibition at 10 µM
Chain of Tyrosine-protein kinase Lck (P06239 whole entry): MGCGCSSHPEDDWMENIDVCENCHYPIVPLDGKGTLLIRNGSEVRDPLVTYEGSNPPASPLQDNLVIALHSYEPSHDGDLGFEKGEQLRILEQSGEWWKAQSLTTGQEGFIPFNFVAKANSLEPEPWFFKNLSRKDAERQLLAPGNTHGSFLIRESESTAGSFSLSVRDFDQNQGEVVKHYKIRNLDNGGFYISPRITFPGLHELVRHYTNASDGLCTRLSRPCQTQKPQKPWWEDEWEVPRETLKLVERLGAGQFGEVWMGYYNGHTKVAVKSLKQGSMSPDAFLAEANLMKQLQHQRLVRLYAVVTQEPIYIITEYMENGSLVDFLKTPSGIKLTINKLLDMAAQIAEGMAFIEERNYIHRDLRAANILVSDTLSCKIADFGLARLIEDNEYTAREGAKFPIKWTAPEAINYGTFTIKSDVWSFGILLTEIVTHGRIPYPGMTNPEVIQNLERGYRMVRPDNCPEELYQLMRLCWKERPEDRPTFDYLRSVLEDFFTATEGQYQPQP

[6] = target: T3, Alpha-1B adrenergic receptor (Rattus norvegicus, UniProt P15823); assay: DRUGMATRIX: Alpha-1B adrenergic receptor radioligand binding (ligand: prazosin); format: cell membranes, Wistar, Liver, Membrane; conditions: Not Active = under 50% inhibition at 10 µM
T3 sequence (P15823 whole entry): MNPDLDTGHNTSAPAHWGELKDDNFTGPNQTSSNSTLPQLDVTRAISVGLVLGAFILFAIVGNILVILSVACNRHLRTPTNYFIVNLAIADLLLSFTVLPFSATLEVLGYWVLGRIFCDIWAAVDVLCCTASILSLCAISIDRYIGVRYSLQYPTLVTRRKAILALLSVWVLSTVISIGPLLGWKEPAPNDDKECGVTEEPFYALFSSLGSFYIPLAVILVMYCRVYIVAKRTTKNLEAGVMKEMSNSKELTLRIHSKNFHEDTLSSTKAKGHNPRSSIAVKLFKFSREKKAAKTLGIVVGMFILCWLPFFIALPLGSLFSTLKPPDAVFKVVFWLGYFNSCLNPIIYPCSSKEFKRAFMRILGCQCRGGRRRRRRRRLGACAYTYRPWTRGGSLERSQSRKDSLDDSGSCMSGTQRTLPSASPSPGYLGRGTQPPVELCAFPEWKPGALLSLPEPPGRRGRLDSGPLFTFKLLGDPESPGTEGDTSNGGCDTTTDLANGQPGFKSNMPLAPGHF

| Compound | IC50 [1] | Ki [1] | IC50 ([2]; read-out: IC50) [nM] | IC50 (Cathepsin G) | IC50 [3] | IC50 [4] | Ki [4] | IC50 ([5]; read-out: IC50) [nM] | IC50 [6] | IC50 ([2]; reticulocytes) | IC50 ([5]; insect cells) | IC50 ([1]; read-out: IC50) [nM] | Ki ([1]; read-out: Ki) [nM] |
| --- | --- | --- | --- | --- | --- | --- | --- | --- | --- | --- | --- | --- | --- |
| Cc1c(C)c2c(c(C)c1O)CCC(C)(CN1CCN(c3cc(N4CCCC4)nc(N4CCCC4)n3)CC1)O2 (stereo unspecified) | Not Active | Not Active | 5670 | Not Active | Not Active | Not Active | Not Active | 17100 | Not Active | – | – | – | – |
| COc1ccc(CCN(C)CCCC(C#N)(c2ccc(OC)c(OC)c2)C(C)C)cc1OC (stereo unspecified) | Not Active | Not Active | – | Not Active | Not Active | Not Active | Not Active | – | – | Not Active | Not Active | – | – |
| CC(C)Cc1ccc([C@@H](C)C(=O)O)cc1 [(R)-IBUPROPHEN] | Not Active | Not Active | – | Not Active | Not Active | Not Active | Not Active | – | Not Active | Not Active | Not Active | – | – |
| CN(C)CCOC(c1ccccc1)c1ccccc1 [DIPHENHYDRAMINE] | – | – | – | Not Active | Not Active | – | – | – | – | Not Active | Not Active | – | – |
| Clc1ccc(COC(Cn2ccnc2)c2ccc(Cl)cc2Cl)cc1 (stereo unspecified) [ECONAZOLE] | – | – | – | Not Active | Not Active | – | – | – | – | Not Active | Not Active | – | – |
| CCN(CC)CCOc1ccc(/C(=C(/Cl)c2ccccc2)c2ccccc2)cc1 [ENCLOMIPHENE] | – | – | – | Not Active | Not Active | – | – | – | – | Not Active | Not Active | – | – |
| Fc1ccc(C(c2ccc(F)cc2)N2CCN(C/C=C/c3ccccc3)CC2)cc1 [FLUNARIZINE] | – | – | – | Not Active | Not Active | – | – | – | – | Not Active | Not Active | – | – |
| CNCCC(Oc1ccc(C(F)(F)F)cc1)c1ccccc1 (stereo unspecified) [FLUOXETINE] | – | – | – | Not Active | Not Active | – | – | – | – | Not Active | Not Active | – | – |
| Cc1ccc(NC(=O)c2ccc(CN3CCN(C)CC3)cc2)cc1Nc1nccc(-c2cccnc2)n1 [IMATINIB] | – | – | – | Not Active | – | – | – | – | – | Not Active | – | – | – |
| CC(C)Oc1ccc2c(=O)c(-c3ccccc3)coc2c1 [IPRIFLAVONE] | Not Active | Not Active | – | Not Active | Not Active | Not Active | Not Active | – | Not Active | Not Active | Not Active | – | – |
| CC(C)NCC(O)c1ccc(O)c(O)c1 (stereo unspecified) [ISOPROTERENOL] | Not Active | Not Active | 1770 | Not Active | Not Active | Not Active | Not Active | – | Not Active | – | Not Active | – | – |
| CNC1(c2ccccc2Cl)CCCCC1=O (stereo unspecified) [KETAMINE] | – | – | – | Not Active | Not Active | Not Active | Not Active | – | Not Active | Not Active | Not Active | 1010 | 684 |
| N#Cc1ccc(C(c2ccc(C#N)cc2)n2cncn2)cc1 [LETROZOLE] | Not Active | Not Active | – | Not Active | Not Active | Not Active | Not Active | – | Not Active | Not Active | Not Active | – | – |
| CCN1CCC[C@H]1CNC(=O)c1cc(S(N)(=O)=O)ccc1OC [LEVOSULPIRIDE] | Not Active | Not Active | – | Not Active | Not Active | Not Active | Not Active | – | Not Active | Not Active | Not Active | – | – |
| CCN(CC)CC(=O)Nc1c(C)cccc1C [LIDOCAINE] | Not Active | Not Active | – | Not Active | Not Active | Not Active | Not Active | – | Not Active | Not Active | Not Active | – | – |
| O=C1Nc2ccc(Cl)cc2C(c2ccccc2Cl)=NC1O (stereo unspecified) [LORAZEPAM] | Not Active | Not Active | – | Not Active | Not Active | Not Active | Not Active | – | Not Active | Not Active | Not Active | – | – |
| CO[C@@H]1[C@@H](OC)[C@H](C)[C@@](O)(CC(=O)O)O[C@H]1[C@H](C)[C@H]1O[C@@]2(CC[C@@](C)([C@H]3CC[C@@](C)([C@@H]4O[C@@H]([C@H]5O[C@](C)(O)[C@H](C)C[C@@H]5C)C[C@@H]4O[C@@H]4C[C@H](OC)[C@@H](OC)[C@H](C)O4)O3)O2)C[C@H](O)[C@H]1C [MADURAMICIN ACID] | Not Active | Not Active | – | Not Active | Not Active | Not Active | Not Active | – | – | Not Active | Not Active | – | – |
| COc1c2occc2cc2ccc(=O)oc12 [METHOXSALEN] | Not Active | Not Active | – | Not Active | Not Active | Not Active | Not Active | – | Not Active | Not Active | Not Active | – | – |
| C[C@H]1C[C@@H]2[C@H]([C@@H](O)C[C@@]3(C)[C@H]2CC[C@]3(O)C(=O)CO)[C@@]2(C)C=CC(=O)C=C12 [METHYLPREDNISOLONE] | Not Active | Not Active | – | Not Active | Not Active | Not Active | Not Active | – | Not Active | Not Active | Not Active | – | – |
| Cc1cccc(C)c1OCC(C)N (stereo unspecified) [MEXILETINE] | Not Active | Not Active | – | Not Active | Not Active | Not Active | Not Active | – | Not Active | Not Active | Not Active | – | – |
| Nc1cc(N2CCCCC2)nc(N)[n+]1[O-] [MINOXIDIL] | Not Active | Not Active | – | Not Active | Not Active | Not Active | Not Active | – | Not Active | Not Active | Not Active | – | – |
| CO[C@H]1/C=C/O[C@@]2(C)Oc3c(C)c(O)c4c(O)c(c(/C=N/N5CCN(C6CCCC6)CC5)c(O)c4c3C2=O)NC(=O)/C(C)=C\C=C\[C@H](C)[C@H](O)[C@@H](C)[C@@H](O)[C@@H](C)[C@H](OC(C)=O)[C@@H]1C [RIFAPENTINE] | Not Active | Not Active | – | Not Active | Not Active | Not Active | Not Active | – | Not Active | Not Active | Not Active | – | – |
| CCCCOc1cc(CC2CNC(=O)N2)ccc1OC (stereo unspecified) [RO-201724] | Not Active | Not Active | – | Not Active | Not Active | Not Active | Not Active | – | Not Active | Not Active | Not Active | – | – |
| CC[C@@H](C(=O)[C@@H](C)[C@@H](O)[C@H](C)[C@@H]1O[C@@H]([C@@H](CC)C(=O)O)CC[C@@H]1C)[C@H]1O[C@]2(C=C[C@@H](O)[C@]3(CC[C@@](C)([C@H]4CC[C@](O)(CC)[C@H](C)O4)O3)O2)[C@H](C)C[C@@H]1C [SALINOMYCIN] | Not Active | Not Active | – | Not Active | Not Active | Not Active | Not Active | – | Not Active | Not Active | Not Active | – | – |
| CN[C@H]1CC[C@@H](c2ccc(Cl)c(Cl)c2)c2ccccc21 [SERTRALINE] | – | – | – | Not Active | Not Active | – | – | – | – | Not Active | Not Active | – | – |
